Measurements: patent publication US20120309622A1, “HERBICIDES CONTAINING SUBSTITUTED THIEN-3-YL-SULPHONYLAMINIO(THIO)CARBONYL-TRIAZOLIN(ETHI)ONES” (BAYER INTELLECTUAL PROPERTY GMBH, priority 2001, published 2012)
Read-outs that look alike come from different tables or passages of the source.

What was measured:
Assay in all cases: Post-emergence test/greenhouse, % damage after three weeks
Type in all cases: in vivo
Bromus secalinus = tested on: Bromus secalinus
Procedure: (§1) The expected action for a given combination of two herbicides can be calculated as follows (cf. COLBY, S. R.: “Calculating synergistic and antagonistic responses of herbicide combinations”, Weeds 15, pages 20-22, 1967):
(§2) If the actual damage exceeds the calculated value, the combination has a superadditive effect, that is to say a synergistic effect.
(§3) Test plants are grown under control conditions (temperature and light).
(§4) Following the spray application, the plant containers are kept in the greenhouse under constant light and temperature conditions.
(§5) After three weeks, the degree of damage to the plants is rated in % damage in comparison to the development of the untreated control.

Veronica persicaria = tested on: Veronica persicaria
Procedure: as §1, §2, §3, §4, §5

Lolium perenne = tested on: Lolium perenne
Avena fatua = tested on: Avena fatua
Source text: as §1
(§6) If • X=% damage by herbicide A (active compound of the formula I) at an application rate of p kg/ha and • Y=% damage by herbicide B (active compound of the formula II) at an application rate of q kg/ha and • E=the expected damage of herbicides A+B at an application rate of p+q kg/ha, then
as §2
(§7) Test plants are grown under control conditions (temperature and light). Once the plants have reached a height of 5 to 15 cm, the test compound or the combination of test compounds is applied by spraying such that the particular amounts of active compound desired are applied per unit area. The concentration of the spray liquor is chosen so that the particular amounts of active compound desired are applied in 500 litres of water/ha.
as §4, §5
(§8) The figures denote: • 0%=no effect (like untreated control) • 100%=total destruction

Setaria viridis = settings: for Setria viridis observed: post-emergence
Source text: as §1, §6, §2, §7, §4, §5, §8

Xanthium strumarium = tested on: Xanthium strumarium
Source text: as §1, §6, §2, §7, §4, §5, §8

Chenopodium album = tested on: Chenopodium album
Source text: as §1, §6, §2, §7, §4, §5, §8

Alopecurus myosuroides = tested on: Alopecurus myosuroides
Source text: as §1, §6, §2, §7, §4, §5, §8

Cyperus esculentus = tested on: Cyperus esculentus
Source text: as §1, §6, §2, §7, §4, §5, §8

Matricaria inodora = tested on: Matricaria inodora
Source text: as §1, §6, §2, §7, §4, §5, §8

Cassia tora = settings: 4 g of ai/ha
Procedure: as §1, §2, §3, §4, §5

Digitaria sanguinalis = tested on: Digitaria sanguinalis
Source text: as §1, §6, §2, §7, §4, §5, §8

[1] = Bromus secalinus, post-emergence, 504 h, 8 g of ai/ha, read-out: Bromus secalinus observed
[2] = Bromus secalinus, post-emergence, 504 h, read-out: Bromus secalinus observed
[3] = Bromus secalinus, post-emergence, 504 h, 2 g of ai/ha, read-out: Bromus secalinus observed
[4] = Bromus secalinus, post-emergence, 504 h, 4 g of ai/ha, read-out: Bromus secalinus observed

## CCS(=O)(=O)Nc1cc(-n2nc(C(F)(F)F)n(C)c2=O)c(F)cc1C(N)=S [HWH 4991]
Bromus secalinus; 30 g of ai/ha
  Bromus secalinus observed: 20%
Bromus secalinus; 60 g of ai/ha
  Bromus secalinus observed: 30%
Veronica persicaria; 30 g of ai/ha
  Veronica persicaria observed: 90%
Lolium perenne; 30 g of ai/ha
  Lolium perenne observed: 20%
Lolium perenne; 60 g of ai/ha
  Lolium perenne observed: 60%

## CC(Cl)CC(=O)Nc1c([N+](=O)[O-])cnn1-c1c(Cl)cc(C(F)F)cc1Cl (centres unmarked) [SLA 5599]
Avena fatua; 30 g of ai/ha
  Avena fatua observed: 0%
Avena fatua; 60 g of ai/ha
  Avena fatua observed: 0%
Veronica persicaria; 30 g of ai/ha
  Veronica persicaria observed: 80%
Lolium perenne; 30 g of ai/ha
  Lolium perenne observed: 0%
Lolium perenne; 60 g of ai/ha
  Lolium perenne observed: 30%

## COc1cc(OC)nc(NC(=O)NS(=O)(=O)N(C)S(C)(=O)=O)n1 [amidosulfuron, N-(4,6-di-methoxypyrimidin-2-yl)-N′—(N-methyl-N-methylsulphonylsulphamoyl)urea, reference compound]
Avena fatua; 8 g of ai/ha
  Avena fatua observed: 0%
Avena fatua; 15 g of ai/ha
  Avena fatua observed: 0%
Setaria viridis; 8 g of ai/ha
  Setaria viridis observed: 0%
Setaria viridis; 15 g of ai/ha
  Setaria viridis observed: 30%
Bromus secalinus; [1]
  pest or weed control at 8 g/ha: 0%

## COC(=O)c1cc(Oc2ccc(Cl)cc2Cl)ccc1[N+](=O)[O-] [bifenox, methyl 5-(2,4-dichlorophenoxy)-2-nitrobenzoate, reference compound]
Avena fatua; 60 g of ai/ha
  Avena fatua observed: 10%
Avena fatua; 125 g of ai/ha
  Avena fatua observed: 10%
Avena fatua; 250 g of ai/ha
  Avena fatua observed: 10%
Xanthium strumarium; 60 g of ai/ha
  Xanthium strumarium observed: 60%
Xanthium strumarium; 125 g of ai/ha
  Xanthium strumarium observed: 60%
Xanthium strumarium; 250 g of ai/ha
  Xanthium strumarium observed: 70%
Bromus secalinus; Bromus secalinus, post-emergence, 504 h, 60 g of ai/ha, read-out: Bromus secalinus observed
  pest or weed control at 60 g/ha: 0%
Bromus secalinus; Bromus secalinus, post-emergence, 504 h, 125 g of ai/ha, read-out: Bromus secalinus observed
  pest or weed control at 125 g/ha: 0%
Bromus secalinus; Bromus secalinus, post-emergence, 504 h, 250 g of ai/ha, read-out: Bromus secalinus observed
  pest or weed control at 250 g/ha: 10%

## N#Cc1cc(Br)c(O)c(Br)c1 [bromoxynil, 3,5-dibromo-4-hydroxybenzonitrile, reference compound]
Chenopodium album; 250 g of a.i./ha
  Activity against Chenopodium album (%): 80%

## CCOC(=O)C(Cl)Cc1cc(-n2nc(C)n(C(F)F)c2=O)c(F)cc1Cl (centres unmarked) [carfentrazone-ethyl, 2-(4-chloro-2-fluoro-5-(2-chloro-2-ethoxycarbonylethyl)phenyl)-4-difluoromethyl-5-methyl-2,4-dihydro-3H-1,2,4-triazol-3-one, reference compound]
Alopecurus myosuroides; 8 g of ai/ha
  Alopecurus myosuroides observed: 0%
Chenopodium album; 2 g of ai/ha
  Chenopodium album observed: 0%
Chenopodium album; 4 g of ai/ha
  Chenopodium album observed: 30%
Chenopodium album; 8 g of ai/ha
  Chenopodium album observed: 50%
Cyperus esculentus; 4 g of ai/ha
  Cyperus esculentus observed: 0%
Cyperus esculentus; 8 g of ai/ha
  Cyperus esculentus observed: 30%

## COc1c(Cl)ccc(Cl)c1C(=O)O [dicamba, 3,6-dichloro-2-methoxybenzoic acid, reference compound]
Alopecurus myosuroides; 30 g of ai/ha
  Alopecurus myosuroides observed: 0%
Alopecurus myosuroides; 60 g of ai/ha
  Alopecurus myosuroides observed: 0%
Cyperus esculentus; 30 g of ai/ha
  Cyperus esculentus observed: 0%
Cyperus esculentus; 125 g of ai/ha
  Cyperus esculentus observed: 0%
Veronica persicaria; 60 g of ai/ha
  Veronica persicaria observed: 40%

## C[C@@H](Oc1ccc(Cl)cc1Cl)C(=O)O [dichlorprop-P, (R)-2-(2,4-dichlorophen-oxy)propanoic acid, reference compound]
Alopecurus myosuroides; 60 g of ai/ha
  Alopecurus myosuroides observed: 0%
Alopecurus myosuroides; 125 g of ai/ha
  Alopecurus myosuroides observed: 0%
Alopecurus myosuroides; 250 g of ai/ha
  Alopecurus myosuroides observed: 20%
Avena fatua; 125 g of ai/ha
  Avena fatua observed: 0%
Avena fatua; 250 g of ai/ha
  Avena fatua observed: 10%
Matricaria inodora; 60 g of ai/ha
  Matricaria inodora observed: 0%
Matricaria inodora; 125 g of ai/ha
  Matricaria inodora observed: 0%
Matricaria inodora; 250 g of ai/ha
  Matricaria inodora observed: 0%

## O=C(Nc1ccc(F)cc1F)c1cccnc1Oc1cccc(C(F)(F)F)c1 [diflufenican, N-(2,4-di-fluorophenyl)-2-(3-trifluoromethylphenoxy)pyridine-3-carboxamide, reference compound]
Alopecurus myosuroides; 30 g of ai/ha
  Alopecurus myosuroides observed: 50%
Alopecurus myosuroides; 60 g of ai/ha
  Alopecurus myosuroides observed: 50%
Alopecurus myosuroides; 125 g of ai/ha
  Alopecurus myosuroides observed: 70%
Avena fatua; 125 g of ai/ha
  Avena fatua observed: 50%
Bromus secalinus; Bromus secalinus, post-emergence, 504 h, 30 g of ai/ha, read-out: Bromus secalinus observed
  pest or weed control at 30 g/ha: 10%

## COc1ncc(F)c2nc(S(=O)(=O)Nc3c(F)cccc3F)nn12 [florasulam]
Bromus secalinus; 2 g of ai/ha
  Bromus secalinus observed: 30%
Bromus secalinus; 4 g of ai/ha
  Bromus secalinus observed: 30%
Cassia tora
  Cassia tora observed: 0%
Veronica persicaria; 4 g of ai/ha
  Veronica persicaria observed: 70%

## CNC1=C(c2cccc(C(F)(F)F)c2)C(=O)C(c2ccccc2)O1 (centres unmarked) [flurtamone]
Matricaria inodora; 30 g of ai/ha
  Matricaria inodora observed: 30%
Bromus secalinus; [2]
  pest or weed control at 60 g/ha: 30%

## CS(=O)(=O)c1cc(C(F)(F)F)ccc1C(=O)c1cnoc1C1CC1 [isoxaflutole]
Alopecurus myosuroides; 2 g of ai/ha
  Alopecurus myosuroides observed: 0%
Alopecurus myosuroides; 4 g of ai/ha
  Alopecurus myosuroides observed: 0%
Matricaria inodora; 4 g of ai/ha
  Matricaria inodora observed: 70%
Bromus secalinus; [3]
  pest or weed control at 2 g/ha: 0%
Bromus secalinus; [4]
  pest or weed control at 4 g/ha: 0%

## COC(=O)c1ccc(CNS(C)(=O)=O)cc1S(=O)(=O)NC(=O)Nc1nc(OC)cc(OC)n1 [mesosulfuron]
Cyperus esculentus; 8 g of ai/ha
  Cyperus esculentus observed: 70%
Cyperus esculentus; 15 g of ai/ha
  Cyperus esculentus observed: 70%
Bromus secalinus; 8 g of ai/ha
  Bromus secalinus observed: 0%

## CSc1nnc(C(C)(C)C)c(=O)n1N [metribuzin]
Matricaria inodora; 30 g of ai/ha
  Matricaria inodora observed: 0%
Xanthium strumarium; 30 g of ai/ha
  Xanthium strumarium observed: 40%

## COc1nc(C)nc(=NC(=O)NS(=O)(=O)c2ccccc2C(=O)O)[nH]1 [metsulfuron]
Cyperus esculentus; 4 g of ai/ha
  Cyperus esculentus observed: 30%
Bromus secalinus; [3]
  pest or weed control at 2 g/ha: 0%
Bromus secalinus; [4]
  pest or weed control at 4 g/ha: 0%
Lolium perenne; 2 g of ai/ha
  Lolium perenne observed: 70%

## CCOC(=O)COc1cc(-c2nn(C)c(OC(F)F)c2Cl)c(F)cc1Cl [pyraflufen ethyl]
Setaria viridis; application rate 2 g of ai/ha
  Setria viridis observed: 40%
Setaria viridis; application rate 4 g of ai/ha
  Setria viridis observed: 40%

## CCOC(=O)COc1cc(-c2nn(C)c(OC(F)F)c2Cl)c(F)cc1Cl [pyraflufen-ethyl]
Bromus secalinus; [2]
  pest or weed control at 2 g/ha: 30%
  pest or weed control at 4 g/ha: 30%
Lolium perenne; 2 g of ai/ha
  Lolium perenne observed: 0%
Lolium perenne; 4 g of ai/ha
  Lolium perenne observed: 30%

## C[S+](C)C.O=C([O-])CNCP(=O)(O)O [sulfosate]
Alopecurus myosuroides; 250 g of ai/ha
  Alopecurus myosuroides observed: 30%
Lolium perenne; 250 g of ai/ha
  Lolium perenne observed: 70%

## COC(=O)c1ccccc1S(=O)(=O)NC(=O)N(C)c1nc(C)nc(OC)n1 [tribenuron-methyl]
Cyperus esculentus; 4 g of ai/ha
  Cyperus esculentus observed: 0%
Cyperus esculentus; 8 g of ai/ha
  Cyperus esculentus observed: 0%
Bromus secalinus; [4]
  pest or weed control at 4 g/ha: 0%
Bromus secalinus; [1]
  pest or weed control at 8 g/ha: 0%
Veronica persicaria; 4 g of ai/ha
  Veronica persicaria observed: 90%

## COc1nc(NC(=O)NS(=O)(=O)c2ccccc2C(F)(F)F)nc(C(F)(F)F)n1 [tritosulfuron]
Digitaria sanguinalis; 15 g of ai/ha
  Digitaria sanguinalis observed: 30%
Digitaria sanguinalis; 30 g of ai/ha
  Digitaria sanguinalis observed: 40%
Setaria viridis; 30 g of ai/ha
  Setaria viridis observed: 0%
Lolium perenne; 15 g of ai/ha
  Lolium perenne observed: 0%
Lolium perenne; 30 g of ai/ha
  Lolium perenne observed: 0%

## fluroxypyr
Matricaria inodora; 60 g of ai/ha
  Matricaria inodora observed: 30%
Matricaria inodora; 125 g of ai/ha
  Matricaria inodora observed: 70%
Bromus secalinus; 60 g of ai/ha
  Bromus secalinus observed: 0%
Bromus secalinus; 125 g of ai/ha
  Bromus secalinus observed: 0%
Veronica persicaria; 125 g of ai/ha
  Veronica persicaria observed: 90%

## imazamox
Digitaria sanguinalis; 8 g of ai/ha
  Digitaria sanguinalis observed: 30%
Matricaria inodora; 8 g of ai/ha
  Matricaria inodora observed: 30%
Matricaria inodora; 15 g of ai/ha
  Matricaria inodora observed: 50%
Bromus secalinus; 8 g of ai/ha
  Bromus secalinus observed: 60%

## iodosulfuron
Setaria viridis; 2 g of ai/ha
  Setaria viridis observed: 0%
Setaria viridis; 4 g of ai/ha
  Setaria viridis observed: 0%
Bromus secalinus; 2 g of ai/ha
  Bromus secalinus observed: 0%
Bromus secalinus; 4 g of ai/ha
  Bromus secalinus observed: 0%
Veronica persicaria; 2 g of ai/ha
  Veronica persicaria observed: 90%

## sulcotrione
Bromus secalinus; 60 g of ai/ha
  Bromus secalinus observed: 0%
Bromus secalinus; 120 g of ai/ha
  Bromus secalinus observed: 30%

## terbuthylazine
Bromus secalinus; 500 g of ai/ha
  Bromus secalinus observed: 50%
